Laboratory results taken from patent US20180244629A1, “Compounds And Compositions For The Treatment Of Cancer” (The Broad Institute, Inc., priority 2013, published 2018).
Read-outs that look alike come from different tables or passages of the source.

Legend:
[1] = test system: HeLa cells; test: HeLa Cytotoxicity Assay (Cell Titer Glo viability); format: cell-based
Procedure: HeLa Cytotoxicity Assay Protocol: Day 0: HeLa cells (ATCC, HeLa CCL-2) are grown to 95% confluence in DMEM, 10% FBS/Pen/Strep/L-Glutamine. Day 1: Plate cells (1000 per well) in 40 μl culturing media using Corning 384-well plates (3570), incubate in standard TC conditions (5% CO2, 95% humidity, 37 degrees C.) for 24 hours. Day 2: Dilute each concentration of a half-log serial dilution of compound (1 mM-100 nM) 1:200 in culturing media and add 10 μl (50 μl total volume) of that dilution to designated wells (8 replicates per concentration). The final dilution will be 1000×(1 μM-100 pM). Day 4: Remove plate from incubator to cool for 20 minutes to room temperature. Add 40 μl of a 25% Promega Cell Titer Glo solution (diluted 1:3 with room temperature PBS) with Thermo combi or multichannel and incubate for 10 minutes. Read on Perkin-Elmer EnVision with US LUM settings for 0.1 second per well.
(§1) Compounds as shown were tested against various cells lines in vitro according to the methods described herein. Cells are plated in 384-well format in a total volume of 40 μl. Indicated compound concentrations were added 24 hrs after plating the cells. After 48 hrs cell viability was determined using Cell Titer Glo® Luminescent Cell Viability Assay.
as §1, with “Known PDE3 inhibitors” for “Compounds”, “shown below” for “shown”

[2] = test system: H2122 cells; test: H2122 Assay (Cell Titer Glo viability); format: cell-based
Procedure: Selective toxicity in cell line panel. H2122 Assay Protocol Day 0: H2122 cells (ATCC, H2122 CCL-5985) are grown to 95% confluence in RPMI, 10% FBS/Pen/Strep/L-Glutamine. Day 1: Plate cells (750 per well) in 40 μl culturing media using Corning 384-well plates (3570), incubate in standard TC conditions (5% CO2, 95% humidity, 37 degrees C.) for 24 h. Day 2: Dilute each concentration of a half-log serial dilution of compound (1 mM-100 nM) 1:200 in culturing media and add 10 μl (50 μl total volume) of that dilution to designated wells (8 replicates per concentration). The final dilution will be 1000×([…]). Day 4: Remove plate from incubator to cool for 20 minutes to room temperature. Add 40 μl of a 25% Promega Cell Titer Glo solution (diluted 1:3 with room temperature PBS) with Thermo combi or multichannel and incubate for 10 minutes. Read on Perkin-Elmer EnVision with US LUM settings for 0.1 second per well.
as §1

[3] = test system: COLO741 cells; test: COLO741 Assay (Cell Titer Glo viability); format: cell-based
Procedure: (§2) C0L0741 Assay Protocol. Day 0: C0L0741 cells (ECACC, C0L0741 93052621) are grown to 95% confluence in RPMI, 10% FBS/Pen/Strep/L-Glutamine. Day 1: Plate cells (1500 per well) in 40 μl culturing media using Corning 384-well plates (3570), incubate in standard TC conditions (5% CO2, 95% humidity, 37° C.) for 24 h. Day 2: Dilute each concentration of a half-log serial dilution of compound (1 mM-100 nM) 1:200 in culturing media and add […] (50 μl total volume) of that dilution to designated wells (8 replicates per concentration). The final dilution will be 1000×([…]). Day 4: Remove plate from incubator to cool for 20 minutes to room temperature. Add 40 μl of a 25% Promega Cell Titer Glo solution (diluted 1:3 with room temperature PBS) with Thermo combi or multichannel and incubate for 10 minutes. Read on Perkin-Elmer EnVision with US LUM settings for 0.1 second per well.
as §1

[4] = test system: A549 cells; test: A549 Cytotoxicity Assay (Cell Titer Glo viability); format: cell-based
Procedure: as §2, with “A549 Cytotoxicity Assay” for “C0L0741 Assay”, “0: A549” for “0: C0L0741”, “cells (ATCC, A549 CCL-185)” for “cells (ECACC, C0L0741 93052621)”, “cells (1000” for “cells (1500”, “10 min.” for “10 minutes.”
A549 Assay Protocol. Day 0: A549 cells (ATCC) are grown in a Triple flask (NUNC) to ˜95% confluence (TrypLE Phenol Red free) and resuspended for dispensing at 25,000 cells/mL of DMEM, 10% FBS/Pen/Strep/L-Glutamine (using the TAP Compact SelecT automated cell culture system). Day 1: Plate cells at 1000 per well in 40 uL media (DMEM/10% FBS/Pen/Strep/L-Glutamine) using Corning 8867BC 384 well plates; incubate in standard TC conditions (5% CO2; 95% humidity, 37° C.) for 24 hours (Compact SelecT). Day 2: Add 100 nL compound per well at dose into 40 uL assay volume using a pin tool (CyBi Well). Pin 100 nL cytotoxic compounds, mitoxantrone (CID 4212) to positive control wells to a final concentration of 10 μM (100 nL 4 mM DMSO stock). Incubate for […] at 37° C. in Liconic incubator, 95% humidity 5% CO2. Day 4: Remove plate from incubator, cool for 15 minutes to room temperature; add 20 μL 50% Promega CellTiterGlo (diluted 1:1 with PBS, pH 7.4) with Thermo Combi. Incubate at room temperature for 5 minutes. Read plates on Perkin-Elmer EnVision with standard luminescence settings for 0.1 sec per well.
as §1
as §1, with “Known PDE3 inhibitors” for “Compounds”, “shown below” for “shown”

[5] = test system: PDE3; settings: reference value; read-out: PDE3 activity (ref); cited from earlier work
[6] = test system: HEL; test: HEL cell line viability (Cell Titer Glo); format: cell-based
Procedure: as §1

[7] = test system: HeLa cells; test: PARP cleavage assay (immunoblot); format: cell-based
Procedure: The mechanism of cell death was determined after contacting the cells with the compound in Example 1. […] Cells were treated for 24 h with the indicated concentrations of each agent, lysed, and immunoblotted with anti-PARP or anti-actin.

[8] = Homo sapiens, HeLa, Example 18, Mean ± SD (n = 3), read-out: Potency (EC50 nM) HeLa
[9] = Homo sapiens, NCI-H2122, Example 18, Mean ± SD (n = 3), read-out: Potency (EC50 nM) H2122
[10] = Homo sapiens, COLO-741, Example 18, Mean ± SD (n = 3), read-out: Potency (EC50 nM) COLO741
[11] = Homo sapiens, A549, known PDE3 inhibitors, Mean (n = 3), read-out: Potency (EC50 nM) A549
[12] = Homo sapiens, HeLa, known PDE3 inhibitors, Mean (n = 3), read-out: Potency (EC50 nM) HeLa
[13] = 48 hrs, Cell Titer Glo, read-out: EC50 A549
[14] = Homo sapiens, HeLa, 48 h, Cell Titer Glo, read-out: EC50 HeLa
[15] = Homo sapiens, NCI-H2122, 48 h, 48 hrs, Cell Titer Glo, read-out: EC50 H2122
[16] = 48 hrs, Cell Titer Glo, read-out: EC50 COLO741
[17] = Homo sapiens, A549, 48 hrs, Cell Titer Glo, read-out: EC50 A549
[18] = Homo sapiens, COLO-741, 48 h, 48 hrs, Cell Titer Glo, read-out: EC50 COLO741
[19] = 48 hrs, Cell Titer Glo, read-out: EC50 H2122

| Structure (SMILES) | EC50 [2, 9] [nM] | EC50 [3, 10] [nM] | EC50 [4, 11] [nM] | EC50 [1, 12] [nM] | IC50 [5] [nM] | further results |
| --- | --- | --- | --- | --- | --- | --- |
| O=C1CN2Cc3c(ccc(Cl)c3Cl)NC2=N1 | 17.4 ± 3.5 | 12.2 ± 0.9 |  |  |  | EC50 [1, 8]: 6.8 ± 0.9 nM |
| O=C1CN2Cc3c(ccc(Cl)c3Cl)N=C2N1 [Anagrelide, reference compound] |  |  | > 10000 | 8.2 | 36 |  |
| CN(C(=O)CCCOc1ccc2[nH]c(=O)ccc2c1)C1CCCCC1 [Cllostamide, reference compound] |  |  | > 10000 | > 10000 | 27 |  |
| O=C1CCC(c2ccc(-n3ccnc3)cc2)=NN1 [Imazodan, reference compound] |  |  | > 10000 | 720 | 1300 |  |
| C[C@@H]1CC(=O)NN=C1c1ccc(NN=C(C#N)C#N)cc1 [Levosimendan, reference compound] |  |  | > 10000 | > 10000 | 2.4 |  |
| Cc1[nH]c(=O)c(C#N)cc1-c1ccncc1 [Millrinone, reference compound] |  |  | > 10000 | > 10000 | 56 |  |
| CC(=O)Nc1ccc(C2=NNC(=O)C[C@H]2C)cc1 [OR-1896, reference compound] |  |  |  | > 10000 | 94 | EC50 ([4]; known PDE3 inhibitors, Mean (n = 3), read-out: Potency (EC50 nM) A549): > 10000 nM |
| CN/C(=N\c1ccc(C2=NNC(=O)CC2C)cc1)NC#N (stereo not shown) [Siguazodan, reference compound] |  |  | > 10000 | > 10000 | 117 |  |
| COc1cc2c(cc1OC)-c1c/c(=N\c3c(C)cc(C)cc3C)n(C)c(=O)n1CC2 [Trequinsin, reference compound] |  |  | > 10000 | > 10000 | 0.25 |  |
| COc1cc(-c2ccc(=O)[nH]n2)ccc1OC(F)F [Zardaverine, reference compound] |  |  | > 10000 | 56 | 2500 |  |
| C[C@@H]1CC(=O)NN=C1c1ccc(N2CCOCC2)cc1 [drawing 138] |  |  |  |  |  | EC50 [4, 13]: > 10000 nM; EC50 [1, 14]: 10.3 to 12.1 nM; EC50 ([6]; 48 hrs): 25.7 to 58.4 nM; EC50 [2, 15]: 11.8 nM; EC50 [3, 16]: 14.5 to 18.9 nM |
| CCN1N=C(c2ccc(N(CC)CC)cc2)[C@H](C)CC1=O [drawing 140] |  |  |  |  |  | EC50 [4, 17]: > 10000 nM; EC50 [1, 14]: > 10000 nM; EC50 [2, 15]: > 1000 nM; EC50 [3, 18]: > 1000 nM |
| CCN(CC)c1ccc(C2=NNC(=O)C[C@H]2C)cc1[N+](=O)[O-] [drawing 141] |  |  |  |  |  | EC50 [4, 17]: > 10000 nM; EC50 [1, 14]: 2.63 nM; EC50 ([6]; Homo sapiens, HEL, 48 h): 13.5 nM; EC50 [2, 19]: 3.62 nM; EC50 [3, 18]: 3.97 nM |
| CCNc1ccc(C2=NNC(=O)C[C@H]2C)cc1[N+](=O)[O-] [drawing 142] |  |  |  |  |  | EC50 [4, 17]: > 10000 nM; EC50 [1, 14]: 0.461 nM; EC50 ([6]; Homo sapiens, HEL, 48 h): 3.98 nM; EC50 [2, 15]: 0.8 nM; EC50 [3, 18]: 0.76 nM |
| CCN(CC)c1ccc(C2=NNC(=O)C[C@H]2C)cc1[N+](=O)[O-] [drawing 145] |  |  |  |  |  | EC50 [4, 13]: > 10000 nM; EC50 ([1]; 48 hrs, Cell Titer Glo, read-out: EC50 HeLa): 4.05 nM; EC50 ([6]; 48 hrs): 11.3 to 16.2 nM; EC50 [2, 19]: 7.4 nM; EC50 [3, 16]: 3.6 to 4.4 nM |
| C[C@@H]1CC(=O)NN=C1c1ccc(N2CCOCC2)cc1 [drawing 151] |  |  |  |  |  | EC50 [4, 17]: > 10000 nM; EC50 ([6]; Homo sapiens, HEL, 48 h): 38.7 nM; EC50 [3, 18]: 16.5 nM |
| OO [hydrogen peroxide] |  |  |  |  |  | mechanism of cell death (PARP cleavage) ([7]; Hela cells treated for 24 h, anti-PARP immunoblot, FIG. 3): caused necrosis but not apoptosis |
| CN[C@@H]1C[C@H]2O[C@@](C)([C@@H]1OC)n1c3ccccc3c3c4c(c5c6ccccc6n2c5c31)C(=O)NC4 [staurosporine] |  |  |  |  |  | cell death ([7]; Hela cells, 10 μM, 24 h): almost complete cell death |

Continued, in another order:

| EC50 [2, 9] [nM] | EC50 [3, 10] [nM] | Structure (SMILES) | EC50 [4, 11] [nM] | EC50 [1, 12] [nM] | IC50 [5] [nM] | further results |
| --- | --- | --- | --- | --- | --- | --- |
| 13.7 ± 2.8 | 12 ± 1.3 | CCN(CC)c1ccc(C2=NNC(=O)CC2C)cc1[N+](=O)[O-] (stereo not shown) [drawing 215] |  |  |  |  |
| 29.6 ± 8.7 | 11.4 ± 0.3 | C[C@@H]1CC(=O)NN=C1c1ccc(C2CCCCC2)cc1 [drawing 216] |  |  |  | EC50 [1, 8]: 7.7 ± 1.3 nM |
| 3.2 ± 1.1 | 3.1 ± 0.6 | C[C@@H]1CC(=O)NN=C1c1ccc(N2CCOCC2)c(F)c1 [drawing 217] |  |  |  | EC50 [1, 8]: 1.6 ± 0.2 nM |
| 31.4 ± 10.8 | 20.2 ± 4.8 | C[C@@H]1CC(=O)NN=C1c1ccc(N2CCOCC2)cc1 [drawing 218] |  |  |  | EC50 [1, 8]: 13.1 ± 1.9 nM |
| 37.8 ± 12.3 | 19.8 ± 1.8 | C[C@@H]1CC(=O)NN=C1c1ccc(-c2cncnc2)cc1 [drawing 219] |  |  |  | EC50 [1, 8]: 12.7 ± 2.2 nM |
| 47.7 ± 14.1 | 33.2 ± 14.1 | C[C@@H]1CC(=O)NN=C1c1ccc(F)c(F)c1 [drawing 220] |  |  |  | EC50 [1, 8]: 22.3 ± 4.5 nM |
| 12.3 ± 3.4 | 7.8 ± 0.3 | CC(=O)Nc1ccc(C2=NNC(=O)C[C@H]2C)cc1[N+](=O)[O-] [drawing 221] |  |  |  | EC50 [1, 8]: 4.9 ± 1.1 nM |
